Measured values: patent publication US8178553B2, “Compounds for the treatment of inflammatory disorders” (Schering Corporation, priority 2006, dated 2012)
Where two headings read alike, the source gives them in different places.

Target: T1, purified catalytic domain of recombinant human TACE (rhTACEc) (Homo sapiens, UniProt P78536, N452Q/S266A)
T1 construct: rhTACEc, Residue 215 to 477 with two mutation (S266A and N452Q) and a 6xHis tail; 6xHis (C); made in house; host or cells: baculovirus/Hi5 insect cells
Experiment: TACE kinetic assay, cleavage of internally quenched fluorescent peptide substrate SPDL-3
Format: biochemical
Method: TACE activity is determined by a kinetic assay measuring the rate of increase in fluorescent intensity generated by TACE catalyzed cleavage of an internally quenched peptide substrate (SPDL-3). […] It is purified from the baculovirus/Hi5 cells expression system using affinity chromatography. […] MCA is (7-Methoxycoumarin-4-yl)acetyl. Dpa is N-3-(2,4-Dinitrophenyl)-L-2,3-diaminopropionyl.
A 50 μl assay mixture contains 20 mM HEPES, pH 7.3, 5 mM CaCl2, 100 µM ZnCl2, 2% DMSO, 0.04% Methylcellulose, 30 μM SPDL-3, 70 pM rhTACEc and a test compound. RhTACEc is pre-incubated with the testing compound for 90 min. at 25° C. Reaction is started by addition of the substrate. […] Rate of enzymatic reaction is shown as Units per second. Effect of a test compound is shown as % of TACE activity in the absence of the compound.

[1] = TACE inhibition, Table 1, read-out: Ki Rating
[2] = Specific TACE inhibitory activity of representative compounds, read-out: Ki

T1 sequence (P78536 215-477 S266A/N452Q): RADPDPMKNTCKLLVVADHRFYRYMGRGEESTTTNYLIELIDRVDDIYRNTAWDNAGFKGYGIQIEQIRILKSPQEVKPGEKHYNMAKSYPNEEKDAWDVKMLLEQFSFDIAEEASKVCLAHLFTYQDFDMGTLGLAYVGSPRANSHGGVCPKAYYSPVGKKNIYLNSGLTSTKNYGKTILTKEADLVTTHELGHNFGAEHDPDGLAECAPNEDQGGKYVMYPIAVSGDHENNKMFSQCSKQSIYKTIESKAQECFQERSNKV

Row | SMILES | Ki [1] [nM] | Ki [2] [nM]
1 | COc1ccc2c(c1)CN(CC1(c3ccc(C#CCO)cc3)NC(=O)NC1=O)C2=O (stereo not drawn) [Compound 20] | < 10 | 
2 | CCOC(=O)c1n[nH]c2ccc(-c3ccc([C@]4(CN5Cc6ccc(OC)cc6C5=O)NC(=O)NC4=O)cc3)cc12 [Compound 77] | < 10 | 
3 | COC(=O)c1ccc(C2(CN3Cc4ccc(OC)cc4C3=O)NC(=O)NC2=O)cc1 (stereo not drawn) [Compound 30] | < 10 | 
4 | COc1ccc2c(c1)C(=O)N(C[C@@]1(c3ccc(-c4cc(C(N)=O)cc(C)n4)cc3)NC(=O)NC1=O)C2 [Compound 67] | < 10 | 
5 | COc1ccc2c(c1)C(=O)N(C[C@@]1(c3ccc(Oc4ccc(C(=O)NCCN(C)C)cc4)cc3)NC(=O)NC1=O)C2 [Compound 83] | < 10 | 
6 | COc1ccc2c(c1)C(=O)N(C[C@@]1(c3cc4ncccc4n3C(=O)OC(C)(C)C)NC(=O)NC1=O)C2 [Compound 46] | < 10 | 
7 | COc1ccc2c(c1)C(=O)N(C[C@@]1(c3cc4nc(S(C)(=O)=O)ccc4o3)NC(=O)NC1=O)C2 [Compound 50] | < 10 | 1.04
8 | COc1ccc2c(c1)C(=O)N(C[C@@]1(c3ccc(-c4cc(C#N)ccn4)cc3)NC(=O)NC1=O)C2 [Compound 73] | < 10 | 
9 | COc1ccc2c(c1)C(=O)N(C[C@@]1(c3ccc(-c4ccccc4C(N)=O)cc3)NC(=O)NC1=O)C2 [Compound 51] | < 10 | 
10 | COc1ccc2c(c1)C(=O)N(CC1(CC(=O)N3CCCCC3)NC(=O)NC1=O)C2 (stereo not drawn) [Compound 9] | < 10 | 
11 | COc1ccc2c(c1)C(=O)N(C[C@@]1(c3ccc(-c4cc(C(=O)NC5CC5)cc(C)n4)cc3)NC(=O)NC1=O)C2 [Compound 64] | < 10 | 0.15
12 | COC(=O)c1cc(C)nc(-c2ccc([C@]3(CN4Cc5ccc(OC)cc5C4=O)NC(=O)NC3=O)cc2)c1 [Compound 53] | < 10 | 
13 | COc1ccc2c(c1)C(=O)N(C[C@@]1(c3ccc(-c4ccnc(C(N)=O)c4)cc3)NC(=O)NC1=O)C2 [Compound 23] | < 10 | 
14 | COc1ccc2c(c1)C(=O)N(C[C@@]1(c3ccc(S(C)(=O)=O)cc3)NC(=O)NC1=O)C2 [Compound 43] | < 10 | 0.26
15 | COc1ccc2c(c1)C(=O)N(C[C@@]1(c3ccc(OCC#CCO)cc3)NC(=O)NC1=O)C2 [Compound 92] | < 10 | 
16 | COc1ccc2c(c1)C(=O)N(C[C@@]1(c3ccc(C(=O)N4CCOCC4)cc3)NC(=O)NC1=O)C2 [Compound 99] | < 10 | 
17 | O=C(O)Cc1ccc2c(c1)CN(CC1(c3ccc(F)cc3)NC(=O)NC1=O)C2=O (stereo not drawn) [Compound 36] | 100 to 1000 | 
18 | COc1ccc2c(c1)C(=O)N(C[C@@]1(c3cc4cc(S(C)(=O)=O)ccc4o3)NC(=O)NC1=O)C2 [Compound 44] | < 10 | 
19 | COc1ccc2c(c1)C(=O)N(CC1(CC(=O)N3Cc4ccccc4C3)NC(=O)NC1=O)C2 (stereo not drawn) [Compound 17] | 10 to 100 | 
20 | COc1ccc2c(c1)C(=O)N(C[C@@]1(c3ccc(-c4ccc(C(N)=O)nc4)cc3)NC(=O)NC1=O)C2 [Compound 75] | < 10 | 
21 | COc1ccc2c(c1)C(=O)N(C[C@@]1(c3ccc(-c4ncccc4C#N)cc3)NC(=O)NC1=O)C2 [Compound 66] | < 10 | 0.09
22 | COc1ccc2c(c1)C(=O)N(C[C@@]1(c3ccc(-c4cncc(C(N)=O)c4)cc3)NC(=O)NC1=O)C2 [Compound 58] | < 10 | 

Row | SMILES | Ki [1] [nM] | Ki [2] [nM]
23 | COc1ccc2c(c1)C(=O)N(C[C@]1(c3ccc(C#Cc4ccccn4)cc3)NC(=O)NC1=O)C2 [Compound 21] | 10 to 100 | 
24 | COc1ccc2c(c1)C(=O)N(C[C@@]1(c3cc4cc(C(N)=O)cnc4o3)NC(=O)NC1=O)C2 [Compound 98] | < 10 | 0.71
25 | COc1ccc2c(c1)C(=O)N(CC1(c3ccc(C(=O)N(C)C)cc3)NC(=O)NC1=O)C2 (stereo not drawn) [Compound 34] | 10 to 100 | 
26 | COc1ccc2c(c1)C(=O)N(CC1(CC(=O)NC(C)C)NC(=O)NC1=O)C2 (stereo not drawn) [Compound 7] | 10 to 100 | 
27 | COc1ccc2c(c1)C(=O)N(C[C@@]1(c3cc4cc(C#N)ccc4o3)NC(=O)NC1=O)C2 [Compound 102] | < 10 | 
28 | COc1ccc2c(c1)C(=O)N(C[C@@]1(c3cc4cc(/C=N/O)ccc4o3)NC(=O)NC1=O)C2 [Compound 97] | < 10 | 0.39
29 | COc1ccc2c(c1)C(=O)N(C[C@@]1(CCc3ccc(F)c(C(N)=O)c3)NC(=O)NC1=O)C2 [Compound 47] | 10 to 100 | 
30 | COc1ccc2c(c1)C(=O)N(C[C@@]1(c3ccc(C(=O)O)cc3)NC(=O)NC1=O)C2 [Compound 100] | < 10 | 
31 | COC(=O)c1cccc(Oc2ccc([C@]3(CN4Cc5ccc(OC)cc5C4=O)NC(=O)NC3=O)cc2)c1 [Compound 86] | < 10 | 
32 | COc1ccc2c(c1)C(=O)N(C[C@@]1(c3ccc(Oc4cccc(C(N)=O)c4)cc3)NC(=O)NC1=O)C2 [Compound 85] | < 10 | 0.46
33 | COC(=O)c1cc(-c2ccc([C@]3(CN4Cc5ccc(OC)cc5C4=O)NC(=O)NC3=O)cc2)cnc1N [Compound 52] | < 10 | 
34 | COc1ccc2c(c1)C(=O)N(C[C@@]1(c3ccc(-c4cnc(N)c(C(=O)NC5CC5)c4)cc3)NC(=O)NC1=O)C2 [Compound 65] | < 10 | 
35 | COc1ccc2c(c1)C(=O)N(CC1(CC(=O)O)NC(=O)NC1=O)C2 (stereo not drawn) [Compound 2] | 100 to 1000 | 
36 | COc1ccc2c(c1)C(=O)N(C[C@@]1(c3ccc(C#Cc4cccnc4)cc3)NC(=O)NC1=O)C2 [Compound 94] | < 10 | 
37 | COc1ccc2c(c1)C(=O)N(C[C@@]1(c3ccc(Oc4cccc(C(=O)N(C)C)c4)cc3)NC(=O)NC1=O)C2 [Compound 88] | < 10 | 
38 | CNC(=O)c1cccnc1-c1ccc([C@]2(CN3Cc4ccc(OC)cc4C3=O)NC(=O)NC2=O)cc1 [Compound 61] | < 10 | 
39 | COc1ccc2c(c1)C(=O)N(CC1(c3ccc(-c4ccccc4CCN)cc3)NC(=O)NC1=O)C2 (stereo not drawn) [Compound 96] | 10 to 100 | 
40 | COc1ccc2c(c1)C(=O)N(C[C@]1(c3ccc(C#Cc4cccnc4)cc3)NC(=O)NC1=O)C2 [Compound 95] | 10 to 100 | 
41 | COc1ccc2c(c1)C(=O)N(C[C@@]1(c3ccc(-c4cnc(N)c(C(N)=O)c4)cc3)NC(=O)NC1=O)C2 [Compound 68] | < 10 | 0.23
42 | COc1ccc2c(c1)C(=O)N(CC1(CC(=O)N3CCCC3)NC(=O)NC1=O)C2 (stereo not drawn) [Compound 5] | < 10 | 
43 | COC(=O)c1ccc([C@]2(CN3Cc4ccc(OC)cc4C3=O)NC(=O)NC2=O)cc1 [Compound 41] | < 10 | 
44 | COc1ccc2c(c1)C(=O)N(CC1(CC(=O)NC3CCCCC3)NC(=O)NC1=O)C2 (stereo not drawn) [Compound 6] | 10 to 100 | 

Row | SMILES | Ki [1] [nM] | Ki [2] [nM]
45 | COc1ccc2c(c1)C(=O)N(C[C@@]1(c3ccc(-c4cnc(C(=O)NC5CC5)cn4)cc3)NC(=O)NC1=O)C2 [Compound 71] | < 10 | 
46 | CCNC(=O)c1cnc(-c2ccc([C@]3(CN4Cc5ccc(OC)cc5C4=O)NC(=O)NC3=O)cc2)cn1 [Compound 70] | < 10 | 
47 | COc1ccc2c(c1)C(=O)N(C[C@@]1(c3ccc(-c4cccc(C(N)=O)n4)cc3)NC(=O)NC1=O)C2 [Compound 76] | < 10 | 0.66
48 | COc1ccc2c(c1)C(=O)N(CC1(CC(=O)N3CCc4ccccc4C3C3CC3)NC(=O)NC1=O)C2 (stereo not drawn) [Compound 15] | < 10 | 
49 | COc1ccc2c(c1)C(=O)N(C[C@@]1(c3ccc(C#N)cc3)NC(=O)NC1=O)C2 [Compound 101] | < 10 | 
50 | COC(=O)c1ccnc(-c2ccc(C3(CN4Cc5ccc(OC)cc5C4=O)NC(=O)NC3=O)cc2)c1 (stereo not drawn) [Compound 55] | < 10 | 
51 | COc1ccc2c(c1)C(=O)N(C[C@@]1(c3ccc(-c4cc(C(N)=O)ccn4)cc3)NC(=O)NC1=O)C2 [Compound 59] | < 10 | 
52 | COC(=O)c1ncccc1C(=O)C[C@]1(CN2Cc3ccc(OC)cc3C2=O)NC(=O)NC1=O [Compound 45] | 10 to 100 | 
53 | CCOC(=O)CC1(CN2Cc3ccc(OC)cc3C2=O)NC(=O)NC1=O (stereo not drawn) [Compound 1] | 10 to 100 | 
54 | CNC(=O)c1cccc(Oc2ccc([C@]3(CN4Cc5ccc(OC)cc5C4=O)NC(=O)NC3=O)cc2)c1 [Compound 89] | < 10 | 
55 | COc1ccc2c(c1)C(=O)N(C[C@@]1(c3ccc(-c4cccnc4C#N)cc3)NC(=O)NC1=O)C2 [Compound 104] | < 10 | 
56 | CC#CCOc1ccc([C@]2(CN3Cc4ccc(OC)cc4C3=O)NC(=O)NC2=O)cc1 [Compound 91] | < 10 | 
57 | O=C1NC(=O)C(CN2Cc3ncccc3C2=O)(c2ccc(F)cc2)N1 (stereo not drawn) [Compound 27] | > 1000 | 
58 | CNC(=O)c1ccc(Oc2ccc([C@]3(CN4Cc5ccc(OC)cc5C4=O)NC(=O)NC3=O)cc2)cc1 [Compound 84] | < 10 | 4
59 | COc1ccc2c(c1)C(=O)N(C[C@@]1(c3ccc(-c4ncccc4C(=O)N(C)C)cc3)NC(=O)NC1=O)C2 [Compound 63] | < 10 | 
60 | CN(C)CC#Cc1ccc([C@]2(CN3Cc4ccc(O)cc4C3=O)NC(=O)NC2=O)cc1 [Compound 19] | 10 to 100 | 
61 | COc1ccc2c(c1)C(=O)N(C[C@@]1(c3ccc(Oc4ccc(C(=O)N5CCOCC5)cc4)cc3)NC(=O)NC1=O)C2 [Compound 82] | < 10 | 
62 | COc1ccc2c(c1)C(=O)N(C[C@@]1(c3ccc(-c4ncccc4C(=O)NC4CC4)cc3)NC(=O)NC1=O)C2 [Compound 62] | < 10 | 
63 | NC(=O)Cc1ccc2c(c1)CN(CC1(c3ccc(F)cc3)NC(=O)NC1=O)C2=O (stereo not drawn) [Compound 37] | 10 to 100 | 
64 | COc1ccc2c(c1)C(=O)N(C[C@@]1(/C(Cc3c[nH]c(=O)c(C)c3)=N/O)NC(=O)NC1=O)C2 [Compound 48] | 10 to 100 | 
65 | COc1ccc2c(c1)C(=O)N(C[C@@]1(c3cc4cc(C#N)cnc4o3)NC(=O)NC1=O)C2 [Compound 38] | < 10 | 
